Measurements from publication PMC2137757 (The Journal of Experimental Medicine, 1964).
Where two headings read alike, the source gives them in different places.

Assays:
adrenal cortex [1] = assay: Induced protection of adrenal against 7,12-DMBA; assay type: in vivo, rat
[2] = tested on: menadione reductase (EC 1.6.5.2); assay: Induction of menadione reductase in tissues; assay type: in vivo, rat; settings: for Hepatic menadione reductase: measured at 48 hours
lactic dehydrogenase = assay: Lactic dehydrogenase level in liver; assay type: in vivo, rat; settings: 3-MC 2.5 mg intravenous; Fig. 1
adrenal cortex [3] = settings: cited from earlier work
[4] = Solubility of hydrocarbons in sesame oil; settings: room temperature; approximately
[5] = Survival after a single feeding; settings: 30 mg, animals invariably succumbed
adrenal cortex [6] = assay: Adrenal damage
[7] = tested on: deoxyribonucleic acid of adrenal; assay type: in vivo, rat; settings: Table VII
adrenal cortex [8] = settings: cited from earlier work; remark: listed apart in the source
[9] = tested on: acid-insoluble residue (DNA) of liver; settings: 7,12-DMBA 5 mg i.v. at -4 hours; TdRH3 at 0 hours; liver at +20 hours; Fig. 3
[10] = 3-MC 2.5 mg i.v. on day 0 and day 1, tissues day 2, eight rats
[11] = rats bearing mammary cancers, fed 3-MC 10 mg, day 1, vs rats without 3-MC
[12] = 7,12-DMBA oral 10 mg at -48 hrs
[13] = 7,12-DMBA oral 10 mg at -48 hrs, 7,12-DMBA 5 mg i.v. at -4 hrs

Cc1ccc2cc3c(ccc4ccccc43)c3c2c1CC3 [3-MC, 3-Methylcholanthrene]
Adrenal protection (adrenal cortex [1]; 3-MC 0.5 mg on day -1 by feeding or injection in muscle or in vein): complete adrenal protection | Duration of adrenal protection (adrenal cortex [1]; 3-MC 1 mg i.v., apoplexy when 7,12-DMBA injected on day 3): 2 days | Duration of adrenal protection (adrenal cortex [1]; 3-MC 5 mg i.v., apoplexy when 7,12-DMBA injected on day 8): 6 days | Adrenal status (adrenal cortex [1]; 3-MC 2, 5, or 10 mg i.v. in the same emulsion with 7,12-DMBA 5 mg (simultaneous)): adrenal apoplexy in all of the animals | Duration of adrenal protection (adrenal cortex [1]; 3-MC small dose (2 mg) i.v., Discussion): 2 days | Adrenal status (adrenal cortex [1]; Table IV, 3-MC 0.5 mg i.v. at -1 hr before 7,12-DMBA 5 mg i.v.): + | Adrenal status (adrenal cortex [1]; Table IV, 3-MC 0.5 mg i.v. at -2 hrs before 7,12-DMBA 5 mg i.v.): + | Adrenal status (adrenal cortex [1]; Table IV, 3-MC 0.5 mg i.v. at -3 hrs before 7,12-DMBA 5 mg i.v.): 0 | Adrenal status (adrenal cortex [1]; Table IV, 3-MC 0.5 mg i.v. at -4 hrs before 7,12-DMBA 5 mg i.v.): 0 | Adrenal status (adrenal cortex [1]; Table IV, 3-MC 1 mg i.v. at -1 hr before 7,12-DMBA 5 mg i.v.): + | Adrenal status (adrenal cortex [1]; Table IV, 3-MC 1 mg i.v. at -2 hrs before 7,12-DMBA 5 mg i.v.): + | Adrenal status (adrenal cortex [1]; Table IV, 3-MC 1 mg i.v. at -3 hrs before 7,12-DMBA 5 mg i.v.): 0 | Adrenal status (adrenal cortex [1]; Table IV, 3-MC 1 mg i.v. at -4 hrs before 7,12-DMBA 5 mg i.v.): 0 | Adrenal status (adrenal cortex [1]; Table IV, 3-MC 2 mg i.v. at -1 hr before 7,12-DMBA 5 mg i.v.): + | Adrenal status (adrenal cortex [1]; Table IV, 3-MC 2 mg i.v. at -2 hrs before 7,12-DMBA 5 mg i.v.): + | Adrenal status (adrenal cortex [1]; Table IV, 3-MC 2 mg i.v. at -3 hrs before 7,12-DMBA 5 mg i.v.): 0 | Adrenal status (adrenal cortex [1]; Table IV, 3-MC 2 mg i.v. at -4 hrs before 7,12-DMBA 5 mg i.v.): 0 | Adrenal status (adrenal cortex [1]; Table IV, 3-MC 2.5 mg i.v. at -1 hr before 7,12-DMBA 5 mg i.v.): + | Adrenal status (adrenal cortex [1]; Table IV, 3-MC 2.5 mg i.v. at -2 hrs before 7,12-DMBA 5 mg i.v.): + | Adrenal status (adrenal cortex [1]; Table IV, 3-MC 2.5 mg i.v. at -3 hrs before 7,12-DMBA 5 mg i.v.): + | Adrenal status (adrenal cortex [1]; Table IV, 3-MC 2.5 mg i.v. at -4 hrs before 7,12-DMBA 5 mg i.v.): 0 | Adrenal status (adrenal cortex [1]; Table IV, 3-MC 5 mg i.v. at -1 hr before 7,12-DMBA 5 mg i.v.): + | Adrenal status (adrenal cortex [1]; Table IV, 3-MC 5 mg i.v. at -2 hrs before 7,12-DMBA 5 mg i.v.): + | Adrenal status (adrenal cortex [1]; Table IV, 3-MC 5 mg i.v. at -3 hrs before 7,12-DMBA 5 mg i.v.): + | Adrenal status (adrenal cortex [1]; Table IV, 3-MC 5 mg i.v. at -4 hrs before 7,12-DMBA 5 mg i.v.): + | Adrenal status (adrenal cortex [1]; Table IV, 3-MC 10 mg i.v. at -1 hr before 7,12-DMBA 5 mg i.v.): + | Adrenal status (adrenal cortex [1]; Table IV, 3-MC 10 mg i.v. at -2 hrs before 7,12-DMBA 5 mg i.v.): + | Adrenal status (adrenal cortex [1]; Table IV, 3-MC 10 mg i.v. at -3 hrs before 7,12-DMBA 5 mg i.v.): + | Adrenal status (adrenal cortex [1]; Table IV, 3-MC 10 mg i.v. at -4 hrs before 7,12-DMBA 5 mg i.v.): + | Hepatic menadione reductase ([2]; 3-MC 2.5 mg i.v. at 0 hours, lipide at 24 hours, Fig. 5): 276 per cent of controls | Increase of menadione reductase in adrenal with respect to untreated controls [2, 10]: 159 per cent | Increase of menadione reductase in lung with respect to untreated controls [2, 10]: 164 per cent | Time of significant rise in menadione reductase in liver ([2]; 3-MC 2.5 mg i.v. only, Fig. 4): 4 h | Time of first rise of menadione reductase in liver ([2]; 3-MC 2.5 mg intravenous, Fig. 1): 3 h | Time of first increase of menadione reductase ([2]; 3-MC large dose (5 mg) i.v., Discussion): 4 h | Increase of menadione reductase in liver [2, 11]: +224 per cent | Increase of menadione reductase in mammary cancer [2, 11]: +275 per cent | Increase of menadione reductase in mammary gland [2, 11]: +214 per cent | Hepatic menadione reductase ([2]; sequence 3-MC 2.5 mg + 3-MC 2.5 mg i.v. at 0 and 24 hours): 387 per cent of controls | Increase of menadione reductase concentration in liver ([2]; single feeding of 3-MC 0.5 mg, 24 hours, Fig. 2): twofold | Increase of menadione reductase level in lung ([2]; single feeding of 3-MC 1 mg, 24 hours, Fig. 2): 150 per cent | Change in concentration of lactic dehydrogenase in liver (lactic dehydrogenase): no significantchange | Prevention of adrenal injury by 7,12-DMBA (adrenal cortex [3]): prevented adrenal injury | Solubility w/v in sesame oil [4]: ~1.25 per cent

CN(C)c1ccc(C=Cc2ccccc2)cc1 [4-dimethylaminostilbene]
Time to death [5]: ≤ 5 days | Adrenal necrosis (adrenal cortex [6]; feeding, 30 mg): did not induce necrosis

Cc1c2ccccc2c(C)c2c1ccc1ccccc12 [7,12-DMBA, 7,12-Dimethylbenz[a]anthracene]
Rats protected (adrenal cortex [1]; 1 mg by intravenous injection on day -1, group of 8): 5 | Adrenal protection (adrenal cortex [1]; 0.5 to 1.5 mg injected intravenously as protector on day -1): no amount was found which induced complete protection | Adrenal protection (adrenal cortex [1]; single feeding 2 mg to 10 mg, 1 day prior to 7,12-DMBA 5 mg i.v.): protected adrenals completely | Hepatic menadione reductase ([2]; 7,12-DMBA 5 mg i.v. at 0 hours, lipide at 24 hours, Fig. 5): 269 per cent of controls | Time of first rise in hepatic menadione reductase ([2]; 7,12-DMBA 5 mg intravenous, Fig. 3): 3 h | Time of first elevation in hepatic menadione reductase ([2]; 7,12-DMBA 5 mg oral, Fig. 3): 8 h | Tritium content of adrenal, per cent of controls ([7]; 7,12-DMBA 5 mg i.v. at -4 hrs): 40 per cent | Tritium content of adrenal [7, 12]: 0.120 ~clgm | Tritium content of adrenal, per cent of controls [7, 12]: 91 per cent | Tritium content of adrenal [7, 13]: 0.064 ~clgm | Tritium content of adrenal, per cent of controls [7, 13]: 48 per cent | Protection of adrenal from damage by a large dose of 7,12-DMBA (adrenal cortex [3]; single preliminary feeding): protects | Intravenous amount that itself causes adrenal necrosis (adrenal cortex [8]; intravenous): ≥ 2 mg | Adrenal apoplexy (adrenal cortex [8]; single feeding 30 mg, adult rats): induces adrenal apoplexy in all adult rats | Solubility w/v in sesame oil [4]: ~10 per cent | Adrenal hemorrhage (adrenal cortex [6]; 5 mg given by vein): invariably caused adrenal hemorrhage | Adrenal apoplexy (adrenal cortex [6]; Table I, 7,12-DMBA 30 mg/kg i.v., age 30 days, adrenals 72 hours later, 8 rats): 0 | Adrenal apoplexy (adrenal cortex [6]; Table I, 7,12-DMBA 30 mg/kg i.v., age 35 days, 8 rats): 6/8 | Adrenal apoplexy (adrenal cortex [6]; Table I, 7,12-DMBA 30 mg/kg i.v., age 40 days, 8 rats): 8/8 | Adrenal apoplexy (adrenal cortex [6]; Table I, 7,12-DMBA 30 mg/kg i.v., age 42 days, 8 rats): 8/8 | Adrenal apoplexy (adrenal cortex [6]; Table I, 7,12-DMBA 30 mg/kg i.v., age 45 days, 8 rats): 8/8 | Adrenal apoplexy (adrenal cortex [6]; feeding of 5 mg): failed to induce apoplexy | Incorporation of tritium into acid-insoluble residue of liver [9]: 56 per cent of control values
